Values quoted from earlier work as cited in PubChem BioAssay AID1259409 (Chemical Carcinogenesis Research Information System (CCRIS), 2018).
Values joined by “and” are separate entries in the source; they are usually repeats but may differ in a detail not shown here. Equal entries are not always repeated.

System: rodent chemically induced tumor inhibition, incidence and multiplicity
Test: CCRIS tumor inhibitor studies

SMILES: CCCCCCCc1c(O)cc(CC=C(C)C)c(O)c1C=O
- tumour outcome (control, treated, inhibition, significance) (Carcinogen: AZOXYMETHANE, 25843-45-2, Dose [Inhibitor]: 0, 0.02% IN DIET IN WK 1-3 OF STUDY FOLLOWED BY BASAL DIET FOR DURATION OF STUDY (STUDY DURATION: 1 YR), Route [Inhibitor]: ORAL, Species: RAT, Strain/Sex: F344/MALE, Target Tissue: Type of Lesion: LARGE INTESTINE: ADENOCARCINOMA, Dose [Carcinogen]: 15 MG/KG BW 1/WK IN WK 1 AND 2 OF STUDY, Promoter: NONE USED): 13/27 (48%), 6/30 (20%), 58%, not significant
- tumour outcome (control, treated, inhibition, significance) (Carcinogen: AZOXYMETHANE, 25843-45-2, Dose [Inhibitor]: 0, 0.02% IN DIET IN WK 1-3 OF STUDY FOLLOWED BY BASAL DIET FOR DURATION OF STUDY (STUDY DURATION: 1 YR), Route [Inhibitor]: ORAL, Species: RAT, Strain/Sex: F344/MALE, Target Tissue: Type of Lesion: LARGE INTESTINE: ADENOMA, Dose [Carcinogen]: 15 MG/KG BW 1/WK IN WK 1 AND 2 OF STUDY, Promoter: NONE USED): 6/27 (22%), 4/30 (13%), 41%, not significant
- tumour outcome (control, treated, inhibition, significance) (Carcinogen: AZOXYMETHANE, 25843-45-2, Dose [Inhibitor]: 0, 0.02% IN DIET IN WK 1-3 OF STUDY FOLLOWED BY BASAL DIET FOR DURATION OF STUDY (STUDY DURATION: 1 YR), Route [Inhibitor]: ORAL, Species: RAT, Strain/Sex: F344/MALE, Target Tissue: Type of Lesion: SMALL INTESTINE: ADENOCARCINOMA, Dose [Carcinogen]: 15 MG/KG BW 1/WK IN WK 1 AND 2 OF STUDY, Promoter: NONE USED): 6/27 (22%), 5/30 (17%), 23%, not significant

SMILES: CCCCCCC(=O)O[C@H]1CC[C@H]2[C@@H]3CCC4=CC(=O)CC[C@]4(C)[C@H]3CC[C@]12C
- tumour outcome (control, treated, inhibition, significance) (Carcinogen: 7,12-DIMETHYLBENZ[A]ANTHRACENE, 57-97-6, Dose [Inhibitor]: 0, 6 MG/100 G BW 1/WK FOR 150 D BEGINNING POST CARCINOGEN TREATMENT (STUDY DURATION: 150 D), Route [Inhibitor]: SUBCUTANEOUS, Species: RAT, Strain/Sex: WISTAR/FEMALE, Target Tissue: Type of Lesion: MAMMARY GLAND: ADENOCARCINOMA, Dose [Carcinogen]: 4 MG IN 0.1 ML OF SESAME OIL INJECTED ONCE INTO THE EXPOSED MAMMARY TISSUE OF HYPERPROLACTINEMIC RATS ON DAY 73 OF AGE, Promoter: NONE USED): 8/11 (73%), 2/8 (25%), 66%, p<0.05

SMILES: CCOC(=O)C(C)(C)Br
- tumour outcome (control, treated, inhibition, significance) (Carcinogen: N-METHYL-N'-NITRO-N-NITROSOGUANIDINE, 70-25-7, Dose [Inhibitor]: 0, 42 MG/KG TWICE WITHIN 24 HR THEN 105 MG/KG 1/2 WK FOR DURATION OF STUDY BEGINNING 1 WK POST LAST CARCINOGEN DOSE (STU, Route [Inhibitor]: INTRAPERITONEAL, Species: RAT, Strain/Sex: SHR/MALE, Target Tissue: Type of Lesion: STOMACH: ADENOCARCINOMA, Dose [Carcinogen]: 25 UG/ML IN DRINKING WATER FOR 25 WK, Promoter: NONE USED): 10/19 (53%), 2/17 (12%), 77%, p<0.05
- tumour outcome (control, treated, inhibition, significance) (Carcinogen: N-METHYL-N'-NITRO-N-NITROSOGUANIDINE, 70-25-7, Dose [Inhibitor]: 0, 42 MG/KG TWICE WITHIN 24 HR THEN 105 MG/KG 1/2 WK FOR DURATION OF STUDY BEGINNING 1 WK POST LAST CARCINOGEN DOSE (STU, Route [Inhibitor]: INTRAPERITONEAL, Species: RAT, Strain/Sex: WISTAR/MALE, Target Tissue: Type of Lesion: STOMACH: ADENOCARCINOMA, Dose [Carcinogen]: 25 UG/ML IN DRINKING WATER FOR 25 WK, Promoter: NONE USED): 2/18 (11%), 0/17 (0%), 100%, not significant

SMILES: Cn1cnc2c1c(=O)[nH]c(=O)n2C
- tumour outcome (control, treated, inhibition, significance) (Carcinogen: URETHANE, 51-79-6, Dose [Inhibitor]: 0.05 UMOL/G BW GIVEN AS 7 INJECTIONS 1/6 HR FOR 36 HR AFTER CARCINOGEN TREATMENT FOLLOWED BY 5 MO OBSERVATION PERIOD (ST, Route [Inhibitor]: INTRAPERITONEAL, Species: MOUSE, Strain/Sex: ICR/FEMALE, Target Tissue: Type of Lesion: LUNG: PAPILLARY ADENOMA, Dose [Carcinogen]: 0.1 MG/G BW ONCE AT 25 D OF AGE, Promoter: NONE USED): 31/59 (53%), 11/56 (20%), 62%, p<0.001

SMILES: COc1ccc(O)c(C(C)(C)C)c1
- tumour outcome (control, treated, inhibition, significance) (Carcinogen: BENZO[A]PYENE, 50-32-8, Dose [Inhibitor]: 0.28 MMOL/G DIET DAILY FOR 6 WK STARTING 14 D PRIOR TO THE FIRST UNTIL 1 D AFTER LAST CARCINOGEN DOSE FOLLOWED BY AN OBS, Route [Inhibitor]: ORAL, Species: MOUSE, Strain/Sex: STRAIN-A/FEMALE, Target Tissue: Type of Lesion: LUNG: ADENOMA, Dose [Carcinogen]: 3 MG IN 0.2 ML COTTONSEED OIL GIVEN 3X AT 2 WK INTERVALS, Promoter: NONE USED): 100%, 100%, 0%, not significant
- tumour outcome (control, treated, inhibition, significance) (Carcinogen: BENZO[A]PYRENE, 50-32-8, Dose [Inhibitor]: 0.03 MMOL/G OF DIET DAILY STARTING 7 D BEFORE AND CONTINUING THROUGH 3 D AFTER CARCINOGEN TREATMENT FOLLOWED BY OBSERVAT, Route [Inhibitor]: ORAL, Species: MOUSE, Strain/Sex: ICR/FEMALE, Target Tissue: Type of Lesion: FORESTOMACH: NEOPLASM, Dose [Carcinogen]: 1 MG IN 0.2 ML CORN OIL 2/WK FOR 4 WK, Promoter: NONE USED): 90%, 79%, 12%, not significant and 94%, 79%, 16%, not significant

SMILES: CCOC(=S)S
- tumour outcome (control, treated, inhibition, significance) (Carcinogen: N-NITROSO-DIETHYLAMINE, 55-18-5, Dose [Inhibitor]: 12.5 MG/KG IN DRINKING WATER ADMINISTERED SIMULTANEOUSLY WITH CARCINOGEN (STUDY DURATION: 28 WK), Route [Inhibitor]: ORAL, Species: RAT, Strain/Sex: BD6/MALE, Target Tissue: Type of Lesion: LIVER: TUMOR, Dose [Carcinogen]: 80 MG/KG 1/WK FOR 10 WK, Promoter: NONE USED): 12/14 (86%), 10/14 (71%), 16%, p>0.05
- tumour outcome (control, treated, inhibition, significance) (Carcinogen: N-NITROSO-DIETHYLAMINE, 55-18-5, Dose [Inhibitor]: 25 MG/KG IN DRINKING WATER PLUS 100 MG/KG 1 HR BEFORE CARCINOGEN ADMINISTERED SIMULTANEOUSLY WITH CARCINOGEN (STUDY DURA, Route [Inhibitor]: ORAL, Species: RAT, Strain/Sex: BD6/MALE, Target Tissue: Type of Lesion: LIVER: TUMOR, Dose [Carcinogen]: 80 MG/KG 1/WK FOR 10 WK, Promoter: NONE USED): 12/14 (86%), 6/12 (50%), 42%, p<0.05

SMILES: Clc1c(Cl)c(Cl)c2c(c1Cl)Oc1c(Cl)c(Cl)c(Cl)c(Cl)c1O2
- tumour outcome (control, treated, inhibition, significance) (Carcinogen: 7,12-DIMETHYLBENZ[A]ANTHRACENE, 57-97-6, Dose [Inhibitor]: 0, 17 NMOL 2/WK APPLIED 1 HR PRIOR TO EACH PROMOTER DOSE FOR 20 WK (STUDY DURATION: 21 WK), Route [Inhibitor]: DERMAL, Species: MOUSE, Target Tissue: Type of Lesion: SKIN: TUMOR, Dose [Carcinogen]: 390 NMOL ONCE, Promoter: 12-O-TETRADECANOYLPHORBOL-13-ACETATE, 16561-29-8): 100%, 87%, 13%, not calculated

SMILES: C=C1CC[C@H](O)C/C1=C/C=C1\CCC[C@]2(C)[C@@H]([C@H](C)CCCC(C)C)CC[C@@H]12
- tumour outcome (control, treated, inhibition, significance) (Carcinogen: N-BUTYL-N-(4-HYDROXYBUTYL)NITROSAMINE, 3817-11-6, Dose [Inhibitor]: 0.002% DIET DAILY FOR 7 WK FOLLOWED BY 1 WK OF NO TREATMENT THEN 5 WK OF 0.001% DIET DAILY AND NO FURTHER TREATMENT THRO, Route [Inhibitor]: ORAL, Species: RAT, Strain/Sex: F344/MALE, Target Tissue: Type of Lesion: URINARY BLADDER: PAPILLOMA, Dose [Carcinogen]: 0.01% IN DRINKING WATER FOR 4 WK, Promoter: NONE USED): 33%, 41%, -24%, not significant
- tumour outcome (control, treated, inhibition, significance) (Carcinogen: N-METHYL-N-NITROSOUREA, 684-93-5, Dose [Inhibitor]: 0, 3.3 UG/KG OF DIET FOR 147 D (STUDY DURATION: 150 D), Route [Inhibitor]: ORAL, Species: RAT, Strain/Sex: SPRAGUE-DAWLEY/FEMALE, Target Tissue: Type of Lesion: MAMMARY GLAND: ADENOCARCINOMA, Dose [Carcinogen]: 50 MG/KG BW ONCE 3 D BEFORE INITIAL INHIBITOR DOSE, Promoter: NONE USED): 25/25 (100%), 25/25 (100%), 0%, not significant
- tumour outcome (control, treated, inhibition, significance) (Carcinogen: N-METHYL-N-NITROSOUREA, 684-93-5, Dose [Inhibitor]: 0, 10 UG/KG OF DIET FOR 147 D (STUDY DURATION: 150 D), Route [Inhibitor]: ORAL, Species: RAT, Strain/Sex: SPRAGUE-DAWLEY/FEMALE, Target Tissue: Type of Lesion: MAMMARY GLAND: ADENOCARCINOMA, Dose [Carcinogen]: 50 MG/KG BW ONCE 3 D BEFORE INITIAL INHIBITOR DOSE, Promoter: NONE USED): 25/25 (100%), 25/25 (100%), 0%, not significant
